“Also recorded” adds a separate entry of the source.

The subject of series [1] is B16-F10 murine melanoma. The series can be described thus: In vitro cytotoxicity, B16-F10 murine melanoma. Format: cell-based. The note with it: 72 hours incubation, crystal violet. The procedure: (§1) Logarithmically growing cells were harvested by mild trypsinisation and 4,000 cells were added to a microtitre plate with 96 wells (Costar). […] Formalin (10%) in a phosphate-buffered physiological saline solution was added and the cells were fixed for 10 minutes.

Series [2] deals with HCT-116 human colon carcinoma. The series can be described thus: In vitro cytotoxicity, HCT-116 human colon carcinoma. Format: cell-based. The note with it: HCT116; 72 hours incubation; crystal violet. The procedure:
as §1

For series [3], the system named is A2780 human ovary carcinoma. Nature of the series: In vitro cytotoxicity, A2780 human ovary carcinoma. Format: cell-based. Particulars: 72 hours incubation, crystal violet. How it is done:
as §1

For series [4], the system named is A2780/124. Nature of the series: In vitro cytotoxicity, A2780/124 sub-line resistant to cis-platinum. The series is classed as cell-based, human. The note with it: for IC50: A2780/124, 72 hours incubation, crystal violet. The procedure:
as §1

Series [5] concerns A2780/DDP. The series can be described thus: In vitro cytotoxicity, A2780/DDP sub-line resistant to cis-platinum. The note with it: for IC50: A2780/DDP, 72 hours incubation, crystal violet. The series is classed as cell-based, human. How it is done: as §1
For series [6], the system named is L1210 murine leukaemia. The series can be described thus: Activity against L1210 murine leukaemia. The series is classed as in vivo, CDF1 mice. The note with it: for % T/C: once on day 1. The procedure: The platinum complex was investigated for anti-tumour action against L1210 murine leukaemia. CDF1 mice with a weight of 20 g were inoculated intraperitoneally with 10^6 ascitic cells of L1210 leukaemia. The administration of the active complex was started the day following the intraperitoneal implantation of the tumour. The complex was administered in diverse amounts by intraperitoneal injections. Groups of 6 mice were used for each dose and they were treated with a single dose of the complex on the treatment day. A group of ten control mice treated with a physiological saline solution was included in the experiment. Mice treated with cis-diamine-dichloro-platinum (cis-platinum) were included as positive comparisons. The mice were weighed before the treatment and again on the fifth or sixth day and the average change in weight was taken as a measure of the toxicity. The animals were assessed daily for mortality and the experiments were ended after 30 days. The tumour activity was determined on the basis of % T/C, which is the ratio of mean survival time of the group treated with the active complex relative to the mean survival time of the control group treated with a physiological saline solution times 100. The mice treated with physiological saline solution usually have a mean survival time of 7 days. A compound is regarded as active when this gives a T/C ≥125%.
=Dose is mg/kg administered i.p., once on day 1.

Series [7] deals with B16 melanoma. The series can be described thus: Action against B16 melanoma. The series is classed as in vivo, BDF1 mice. The note with it: day 1-9. How it is done:
BDF1 mice, 10 per group, are inoculated intraperitoneally with 0.5 ml of a 10% (weight/vol) homogeneous tissue suspension of B16 melanoma. Intraperitoneal treatment with the active compound was started one day after the implantation and continued daily for a total of 9 days. The control group treated with a physiological saline solution and groups treated with cis-platinum were included in each experiment. The mice were assessed daily for survival and tests were stopped after 60 days. The mean survival time of the mice treated with the active agent relative to that of the comparison (% T/C) was used as a measure for the anti-tumour action. A compound is regarded as active with a % T/C of 125%.
=Dose is mg/kg per injection administered i.p. on day 1-9

Series [8] has as its system M5076 sarcoma. The series can be described thus: Action against subcutaneously implanted M5076 sarcoma. The series is classed as in vivo, BDF1 mice. The note with it: day 5, 9, 13 and 17.
Protocol: The complex was also assessed for anti-tumour action against subcutaneously implanted M5076 sarcoma. BDF1 mice, 8 per group, were inoculated subcutaneously with a fragment of a M5076 tumour. The mice were treated intravenously starting 5 days after the implantation and again on days 9, 13 and 17. […] Four doses of the complex were tested. A comparison group treated with physiological saline solution and groups treated with cis-platinum are included in this experiment. The mice were assessed daily for survival and the tests were ended after 75 to 80 days.
For series [9], the system named is tumours. Particulars: Rosenberg et al., Nature 222 (1969); cited from earlier work.
Series [10] deals with tumour cells resistant to cis-platinum (A2780/124 and A2780/DDP). The series can be described thus: Action against tumour cells resistant to cis-platinum. Format: cell-based, human. The procedure:
For cis-platinum the corresponding values are 10 and 12.6 respectively.
as §1

Setting [11] is: resistance criterion: ratio ≥4.0.

Take `N.N.[Cl][Pt][Cl]` [Cis-platinum, cis-diamine-dichloroplatinum]: the IC50 in series [1] was 9.8 µg/mL; in series [2], 8.5 µg/mL; in [3], 2.3 µg/mL; in series [4], 23 µg/mL; in series [5], 28 µg/mL. Besides, in [4] (setting [11]), the “ratio IC50 A2780/124 to IC50 A2780” value was found to be 10. For the same molecule, the “ratio IC50 A2780/DDP to IC50 A2780” value in series [5] (setting [11]) is on record as 12.6. The “% T/C” value is 131% in series [6] (4 mg/kg i.p.); 138% in [6] (6 mg/kg i.p.); 131% in [6] (8 mg/kg i.p.); 138% in [6] (10 mg/kg i.p.); 117% in series [7] (0.4 mg/kg per injection i.p.); 137% in series [7] (0.8 mg/kg per injection i.p.). For the same molecule, the “% T/C” value was determined as 171% in [7] (1.6 mg/kg per injection i.p.); 146% in series [7] (2.4 mg/kg per injection i.p.); 134% in series [8] (3 mg/kg i.v.); 135% in series [8] (4 mg/kg i.v.); 131% in [8] (5 mg/kg i.v.); 121% in [8] (6 mg/kg i.v.). Moreover, the “T-C (mean time for tumours to reach 1 gram, treated relative to untreated)” value in series [8] (3 mg/kg i.v.) was 18.3 days; in series [8] (4 mg/kg i.v.) it was 16.3 days; in series [8] (5 mg/kg i.v.), 20.5 days; in series [8] (6 mg/kg i.v.) it was 20 days. Also, the anti-tumour activity result in series [9] is recorded as “very strong anti-tumour activity”.

With `NCC1(CN)CCCC1.O=S(=O)([O-])[O-].[Cl][Pt+2][Cl]` [TNO-40, Cis-sulphato-trans-dichloro-1,1-bis(aminomethyl)cyclopentane-platinum-(IV)], the IC50 was found to be 7.4 µg/mL in [1]; 16 µg/mL in series [2]; 6.4 µg/mL in [3]; 21 µg/mL in series [4]; 23 µg/mL in [5]. Moreover, the “% T/C” value is listed as 193% in series [6] (4 mg/kg i.p.); 186% in [6] (6 mg/kg i.p.); 180% in series [6] (8 mg/kg i.p.); 179% in [6] (2,5 mg/kg i.p.); 127% in series [7] (0.2 mg/kg per injection i.p.); 137% in [7] (0.4 mg/kg per injection i.p.). The “% T/C” value in series [7] (0.8 mg/kg per injection i.p.) is listed as 163%; in [7] (1.6 mg/kg per injection i.p.), 139%; in [7] (2.4 mg/kg per injection i.p.), 83%; in series [8] (3 mg/kg i.v.), 126%; in series [8] (4 mg/kg i.v.), 125%. Further, the “anti-tumour action against L1210 murine leukaemia” value in series [6] (active = T/C ≥125%, all doses investigated) is reported as “active at all doses investigated”. Further, the “toxicity” value in [8] (5 mg/kg i.v.) and in series [8] (6 mg/kg i.v.) was “toxic” each time. Also, the “action against cell lines resistant to cis-platinum” value in series [10] is “exhibits an anti-tumor action; also recorded: surprisingly good action”.

One may read the IC50 as the concentration needed to halve the response being measured. Low readings indicate greater potency in that assay, high ones weaker potency in that assay.

Values taken from patent US5028727A, “Platinum-(IV)-diamine complex” (Nederlandse Organisatie Voor …, priority 1988, dated 1991).
